Earlier results as cited in PMC3230568 (International Journal of Nanomedicine, 2011).

Assays:
[1] = molecular target: full-length p53 (Homo sapiens, UniProt P04637); conditions: single-molecule AFS
[2] = system: NTD of p53; conditions: biological as well as computational studies
[3] = system: cancer cells; conditions: azurin
[4] = azurin
[5] = system: p53; conditions: azurin
[6] = system: cancer cells; conditions: azurin, relative to normal cells

full-length p53, sequence (P04637 whole entry): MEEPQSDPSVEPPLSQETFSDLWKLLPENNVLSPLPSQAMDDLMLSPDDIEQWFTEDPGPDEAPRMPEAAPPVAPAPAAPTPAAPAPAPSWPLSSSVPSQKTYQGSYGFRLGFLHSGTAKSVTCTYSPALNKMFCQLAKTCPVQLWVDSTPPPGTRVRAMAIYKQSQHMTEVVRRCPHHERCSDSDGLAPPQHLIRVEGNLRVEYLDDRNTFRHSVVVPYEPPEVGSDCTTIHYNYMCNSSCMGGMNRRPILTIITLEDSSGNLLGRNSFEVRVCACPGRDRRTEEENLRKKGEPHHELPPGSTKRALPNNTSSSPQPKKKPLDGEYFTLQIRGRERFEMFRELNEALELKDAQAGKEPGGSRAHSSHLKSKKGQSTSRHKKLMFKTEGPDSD

## azurin: copper-containing, electron-transfer protein secreted by Pseudomonas aeruginosa; 128-amino acid
[1]
  complex formation with full-length p53: a stable complex is formed
[2]
  binding to p53 NTD: binds to either the NTD of p53
[3]
  anticancer activity in vitro: significant anticancer activity in vitro
[4]
  anticancer activity in vivo: significant anticancer activity
[5]
  effect on p53 level: stabilization and subsequent increase in intracellular concentration of p53
[6]
  preferential entry into cancer cells: preferentially enters cancer relative to normal cells
